The source made the active and inactive calls. The rule behind the calls is not given here.
Key:
Huh-7 [1] = assay: Induction of apoptosis in human HuH7 cells assessed as change in nuclear morphology after 24 hrs using Hoechst staining; type: functional
Huh-7 [2] = assay: Induction of apoptosis in human HuH7 cells assessed as change in nuclear morphology after 48 hrs using Hoechst staining; type: functional
Huh-7 [3] = assay: Induction of apoptosis in human HuH7 cells assessed as increase in caspase-3 activity after 12 hrs; type: functional, cell-based
Huh-7 [4] = assay: Induction of necrosis in human HuH7 cells; type: functional, cell-based
Huh-7 [5] = assay: Induction of apoptosis in human HuH7 cells assessed as change in nuclear morphology after 72 hrs using Hoechst staining; type: functional
Huh-7 [6] = assay: Induction of apoptosis in human HuH7 cells assessed as cell death after 24 hrs by trypan blue dye exclusion assay; type: functional, cell-based

| Compound | Activity (Huh-7 [1]) [%] | Activity (Huh-7 [2]) [%] | Activity (Huh-7 [3]) | inhibition (Huh-7 [4]) | Activity (Huh-7 [5]) [%] | Activity (Huh-7 [6]) |
| --- | --- | --- | --- | --- | --- | --- |
| C/C=C1/CN(C)[C@H]2Cc3c([nH]c4ccccc34)C(=O)C[C@H]1[C@@H]2C(=O)OC [VOBASINE] | 40 | <25 | Active | inactive | <25 | – |
| Cc1cc2c3ccccc3n3c2c(n1)CCNC3C (configuration not stated) | – | – | – | – | – | Active |
| Cc1cc2c([nH]c3ccccc32)c2[n+]1C(C)NCC2 (configuration not stated) | – | – | – | – | – | Active |
| CC[C@@H]1CN(C)[C@H]2Cc3c([nH]c4ccccc34)C(=O)C[C@@H]1[C@H]2C(=O)OC [TABERNAEMONTANINE] | 40 | <25 | Active | inactive | <25 | – |
